This is an account of results in US20230303599A1, “PRODRUGS OF PHOSPHONAMIDE NUCLEOTIDE ANALOGUES AND THEIR PHARMACEUTICAL USE” (priority 2020, published 2023).

Data set [1] is described as follows: Cytotoxicity assay in MT-4 cells. Type of data set: cell-based. Particulars: human, uninfected MT-4 cells, average of at least two independent experiments, read-out: MT4 CC50. The method, then:
Compounds were tested in a high-throughput 384-well assay format for their ability to inhibit the replication of HIV-1 (IIIB) in MT-4 cells. Compounds were serially diluted (1:3) in DMSO on 384-well polypropylene plates and further diluted 200-fold into complete RPMI media (10% FBS, 1% P/S) using the Biotek Micro Flow and Labcyte ECHO acoustic dispenser. Each plate contained up to 8 test compounds, with negative (no drug) and positive (5 μM AZT) controls. MT-4 cells were pre-treated with 10 μL of either RPMI (mock-infected) or a fresh 1:250 dilution of HIV-1 IIIB concentrated virus stock. Infected and uninfected MT-4 cells were further diluted in complete RPMI media and added to each plate using a Micro Flow dispenser. After 5 days incubation in a humidified and temperature-controlled incubator (37° C.), Cell Titer Glo (Promega) was added to the assay plates and chemiluminescence read using an Envision plate-reader. EC50 values were defined as the compound concentration that causes a 50% decrease in luminescence signal and were calculated using a sigmoidal dose-response model to generate curve fits and are shown in Table 1.
Example 105: Cytotoxicity Assay in MT-4 Cells
Assays were performed as described in Example 104 except uninfected MT-4 cells were added to each well containing test compound. In addition, 10 μM puromycin was added to the last column of each assay plate to assess a base level of cytotoxicity.

The nature of data set [2]: Kinetic solubility analysis. Particulars: 1× PBS, 24.2 °C, aqueous buffer, kinetic from dmso stock; pH 7.4 PBS, 1% DMSO, 24-hour incubation at ambient temperature. In kind it is physicochemical. As for the experimental part:
Example 108: Kinetic Solubility Analysis
Buffer Preparation: 0.1 N HCl: Hydrochloric acid, 0.1 N standardized solution (MP Biomedicals part number 199569). 1×PBS, pH 7.4: Phosphate Buffered Saline (PBS) solution 10× (Fisher Bioreagent part number BP399-500) 50 mL was added to approximately 450 mL HPLC grade H2O. The volume of the solution was then adjusted to 500 mL for a total dilution factor of 1:10 and a final PBS concentration of 1×.
The final DMSO concentration was 1.0% (v/v) and maximum theoretical compound concentration is 100 μM (for compound stock concentration of 10 mM). The filter plate was sealed. Following 24-hour incubation at ambient temperature (24.2-27.5° C.), the samples were vacuum filtered and the filtrates were collected in a 96 well polypropylene plate for analysis. The collection plate was sealed for analysis. Filtrates were injected into the Antek 8060 chemiluminescent nitrogen detector for quantification. The results are reported in μM.
The filtrates were quantified with respect to this calibration curve. Each calculated solubility value was corrected for background nitrogen present in the DMSO and in the medium used to prepare the sample. All reported values for compounds containing adjacent nitrogen atoms in a ring structure were increased by approximately 25%.

Data set [3] is described as follows: Cytotoxicity assay in primary human hepatocytes (PHHs). Particulars: HBV-infected primary human hepatocytes, HBV-infected PHH, Cell Titer Glo, average of at least two independent experiments. In kind it is cell-based. As for the experimental part:
Example 107: Cytotoxicity Assay in Primary Human Hepatocytes (PHHs)
The HBV-infected primary human hepatocytes are seeded (20K cells/well in 80 uL of Media) in 384well collagen coated plates pre-spotted with compounds. After 5 days, 40 ul of cell supernatant is removed to quantify HBV DNA levels as described in Example 106. Then, 40 ul Cell Titer Glo Reagent (Promega Catalog Number: G7572) is added to the remaining cells and luminescence is measured on the EnVision microplate reader.
In general terms: In ATP-based viability assays light output follows the ATP content of the culture.

Values after ≈ are worked out from the molar mass of the structure shown.

On to `C[C@H](Cn1cnc2c(N)ncnc21)OCP(=O)(NC(C)(C)C(=O)OCc1ccccc1)NC(C)(C)C(=O)OCc1ccccc1` [Example 3, Dibenzyl 2,2′-(((((1-(6-amino-9H-purin-9-yl)propan-2-yl)oxy)methyl)phosphoryl)bis(azanediyl))(R)-bis(2-methylpropanoate)], for which the CC50 at 5 days in data set [1] was 4.46 µM; in data set [3], over 0.1 µM. In data set [2], this compound displayed a kinetic solubility at 24 h of 50 µg/mL (≈ 78.4 µM).

Consider `CCCCCOC(=O)C(C)(C)NP(=O)(CO[C@H](C)Cn1cnc2c(N)ncnc21)NC(C)(C)C(=O)OCCCCC` [Example 4, Dipentyl 2,2′-(((((1-(6-amino-9H-purin-9-yl)propan-2-yl)oxy)methyl)phosphoryl)bis(azanediyl))(R)-bis(2-methylpropanoate)], for which the CC50 at 5 days in data set [1] was 8.42 µM; in data set [3] it was over 0.1 µM. In data set [2], this compound showed a kinetic solubility at 24 h of 53 µg/mL (≈ 88.7 µM).

Consider `CCC[C@H]1CC[C@H](OC(=O)C(C)(C)NP(=O)(CO[C@H](C)Cn2cnc3c(N)ncnc32)NC(C)(C)C(=O)O[C@H]2CC[C@H](CCC)CC2)CC1` [Example 27], for which the kinetic solubility at 24 h in data set [2] was determined as 1 µg/mL (≈ 1.42 µM). This compound also gave a CC50 at 5 days in data set [3] of over 0.1 µM.

As to `CCCCCCCCCCCC(=O)Nc1ncnc2c1ncn2C[C@@H](C)OCP(=O)(NC(C)(C)C(=O)OCCCCCC)NC(C)(C)C(=O)OCCCCCC` [Example 30, Dihexyl 2,2′-(((((1-(6-dodecanamido-9H-purin-9-yl)propan-2-yl)oxy)methyl)phosphoryl)bis(azanediyl))(R)-bis(2-methylpropanoate)], in data set [2], the kinetic solubility at 24 h is under 1 µg/mL. Besides, the CC50 at 5 days in data set [3] was over 0.1 µM.

On to `CCCCCCOC(=O)C(C)(C)NP(=O)(CO[C@H](C)Cn1cnc2c(NC(=O)OCCC)ncnc21)NC(C)(C)C(=O)OCCCCCC` [Example 31, Dihexyl 2,2′-(((((1-(6-((propoxycarbonyl)amino)-9H-purin-9-yl)propan-2-yl)oxy)methyl)phosphoryl)bis(azanediyl))(R)-bis(2-methylpropanoate)], for which the CC50 at 5 days in data set [1] was 9.01 µM; in data set [3], over 0.1 µM. The solubility (kinetic) at 24 h in data set [2] was found to be 12 µg/mL (≈ 16.9 µM).

In the case of `C[C@H](Cn1cnc2c(N)ncnc21)OCP(=O)(NC(C)(C)C(=O)OC1CCC2(CCCC2)CC1)NC(C)(C)C(=O)OC1CCC2(CCCC2)CC1` (stereo partly drawn) [Example 61, Di(spiro[4.5]decan-8-yl) 2,2′-(((((1-(6-amino-9H-purin-9-yl)propan-2-yl)oxy)methyl)phosphoryl)bis(azanediyl))(R)-bis(2-methylpropanoate)], the values for the CC50 at 5 days in data set [1] and in data set [3] were 6 µM and over 0.1 µM, respectively. In data set [2], this compound had a solubility (kinetic) at 24 h of under 1 µg/mL.

As to `C[C@H](Cn1cnc2c(N)ncnc21)OCP(=O)(NC(C)(C)C(=O)OCCC12CC(C1)C2)NC(C)(C)C(=O)OCCC12CC(C1)C2` [Example 62, Bis(2-(bicyclo[1.1.1]pentan-1-yl)ethyl) 2,2′-(((((1-(6-amino-9H-purin-9-yl)propan-2-yl)oxy)methyl)phosphoryl)bis(azanediyl))(R)-bis(2-methylpropanoate)], the CC50 at 5 days was 3.19 µM in data set [1] and over 0.1 µM in data set [3]. Also, the kinetic solubility at 24 h in data set [2] was under 1 µg/mL.

Regarding `CCCCCCOC(=O)C(CC)(CC)NP(=O)(CO[C@H](C)Cn1cnc2c(N)ncnc21)NC(CC)(CC)C(=O)OCCCCCC` [Example 65, Dihexyl 2,2′-(((((1-(6-amino-9H-purin-9-yl)propan-2-yl)oxy)methyl)phosphoryl)bis(azanediyl))(R)-bis(2-ethylbutanoate)], the values for the half-maximal cytotoxic concentration (CC50) at 5 days in data set [1] and in data set [3] were 6.71 µM and over 0.1 µM, respectively.

With `CCCCCCCOC(=O)C(C)(C)NP(=O)(CO[C@H](C)Cn1cnc2c(N)ncnc21)NC(C)(C)C(=O)OCCCCCCC` [Example 66, Diheptyl 2,2′-(((((1-(6-amino-9H-purin-9-yl)propan-2-yl)oxy)methyl)phosphoryl)bis(azanediyl))(R)-bis(2-methylpropanoate)], the figures for the CC50 at 5 days in data set [1] and in data set [3] were 4.77 µM and over 0.1 µM, respectively.

With `CCCCCCOC(=O)C(C)(C)NP(=O)(CO[C@H](C)Cn1cnc2c(N)ncnc21)NC(C)(C)C(=O)OCC12CC(C1)C2` (stereo partly drawn) [Example 77, Bicyclo[1.1.1]pentan-1-ylmethyl 2-((((((R)-1-(6-amino-9H-purin-9-yl)propan-2-yl)oxy)methyl)((1-(hexyloxy)-2-methyl-1-oxopropan-2-yl)amino)phosphoryl)amino)-2-methylpropanoate], the CC50 at 5 days is over 50 µM in data set [1] and over 0.1 µM in data set [3]. For the same compound, the kinetic solubility at 24 h in data set [2] is 57 µg/mL (≈ 91.7 µM).

`C[C@H](Cn1cnc2c(N)ncnc21)OCP(=O)(NC(C)(C)C(=O)OCC12CCC(CC1)C2)NC(C)(C)C(=O)OCC12CCC(CC1)C2` [Example 87, Bis(bicyclo[2.2.1]heptan-1-ylmethyl) 2,2′-(((((1-(6-amino-9H-purin-9-yl)propan-2-yl)oxy)methyl)phosphoryl)bis(azanediyl))(R)-bis(2-methylpropanoate)]: the CC50 at 5 days was 5.05 µM in data set [1] and over 0.1 µM in data set [3]. Moreover, the solubility (kinetic) at 24 h in data set [2] was under 1 µg/mL.

In the case of `CCCCCCOC(=O)C(C)(C)NP(=O)(CO[C@H](C)Cn1cnc2c(NC(=O)OCCOC(=O)c3ccccc3)ncnc21)NC(C)(C)C(=O)OCCCCCC` [Example 94, Dihexyl 2,2′-(((((1-(6-(((2-(benzoyloxy)ethoxy)carbonyl)amino)-9H-purin-9-yl)propan-2-yl)oxy)methyl)phosphoryl)bis(azanediyl))(R)-bis(2-methylpropanoate)], the figures for the CC50 at 5 days in data set [1] and in data set [3] were 8.22 µM and over 0.1 µM, respectively. This compound also registered a kinetic solubility at 24 h in data set [2] of 2 µg/mL (≈ 2.45 µM).

For the compound `CCCCCCOC(=O)C(C)(C)NP(=O)(CO[C@H](C)Cn1cnc2c(NC(=O)[C@H]3CCC(=O)O3)ncnc21)NC(C)(C)C(=O)OCCCCCC` [Example 96, Dihexyl 2,2′-((((((R)-1-(6-((R)-5-oxotetrahydrofuran-2-carboxamido)-9H-purin-9-yl)propan-2-yl)oxy)methyl)phosphoryl)bis(azanediyl))bis(2-methylpropanoate)], the CC50 at 5 days in data set [1] was 11 µM. Moreover, the kinetic solubility at 24 h in data set [2] was 92 µg/mL (≈ 125 µM).

Regarding `CCCCCCOC(=O)C(C)(C)NP(=O)(CO[C@H](C)Cn1cnc2c(NC(=O)OCC(C)(C)C(=O)OCc3oc(=O)oc3C)ncnc21)NC(C)(C)C(=O)OCCCCCC` [Example 98, Dihexyl 2,2′-(((((1-(6-(((2,2-dimethyl-3-((5-methyl-2-oxo-1,3-dioxol-4-yl)methoxy)-3-oxopropoxy)carbonyl)amino)-9H-purin-9-yl)propan-2-yl)oxy)methyl)phosphoryl)bis(azanediyl))(R)-bis(2-methylpropanoate)], in data set [1], the CC50 at 5 days was 24.5 µM. This compound returned a kinetic solubility at 24 h in data set [2] of 7 µg/mL (≈ 7.94 µM).

Turning to `CCCCCCOC(=O)C(C)(C)NP(=O)(CO[C@H](C)Cn1cnc2c(NC(=O)CCCC(=O)OCc3oc(=O)oc3C)ncnc21)NC(C)(C)C(=O)OCCCCCC` [Example 99, (5-Methyl-2-oxo-1,3-dioxol-4-yl)methyl 5-[[9-[(2R)-2-[bis[(2-hexoxy-1,1-dimethyl-2-oxo-ethyl)amino]phosphorylmethoxy]propyl]purin-6-yl]amino]-5-oxo-pentanoate], in data set [1], the CC50 at 5 days is 17.2 µM. In data set [2], this compound returned a solubility (kinetic) at 24 h of 25 µg/mL (≈ 29.3 µM).

Consider `CCCCCCOC(=O)C(C)(C)NP(=O)(CO[C@H](C)Cn1cnc2c(NC(=O)OC(C)(C)CC(=O)OCc3oc(=O)oc3C)ncnc21)NC(C)(C)C(=O)OCCCCCC` [Example 101, Dihexyl 2,2′-(((((1-(6-((((2-methyl-4-((5-methyl-2-oxo-1,3-dioxol-4-yl)methoxy)-4-oxobutan-2-yl)oxy)carbonyl)amino)-9H-purin-9-yl)propan-2-yl)oxy)methyl)phosphoryl)bis(azanediyl))(R)-bis(2-methylpropanoate)], for which, in data set [1], the CC50 at 5 days was determined as 7.68 µM. This compound also displayed a solubility (kinetic) at 24 h in data set [2] of 23 µg/mL (≈ 26.1 µM).

The CC50 is the concentration that lowers cell viability or growth by half. Usually kinetic solubility stands for solubility judged after dilution from a stock solution rather than from solid.
